Results published in patent US7078499B2, “Nucleotide analogues comprising a reporter moiety and a polymerase enzyme blocking moiety” (GE Healthcare UK Limited, priority 2000, dated 2006).

Experiments:
Format in all cases: biochemical
Set-up in all cases: key to result of incorporation (termination / further chain extension): T: Incorporation results in termination; E: Incorporation permits further chain extension; T/E: Predominant product is primer extended by one base, but evidence of some further extension also observed
Thermosequenase = experiment: Thermostable DNA polymerase primer extension, TS; conditions: DNA template, 45° C. for 20–40 minutes; for primer extended by at least one base within assay time (grade): TTP replaced entirely by test compound
Method: (§1) DNA polymerase assays were performed using Sequence 1 as primer and Sequence 2 as template. • Sequence 1 5′[Cy3]TAACTCATTAACAGGATC 3′ • Sequence 2 5′AT TCGCGGTATTCTGGTATGAAGCTTTTAGATCCTGTTAATGAGTTA GTA3′
(§2) The template (Sequence 2) was designed such that the base (underlined) immediately adjacent to the 3′ end of the hybridised primer is complementary to the nucleotide test compound. Nucleotide test compounds were compounds (6) (4′-C-(glycylaminomethyl)thymidine triphosphate), (8) (4′-C-(N-trifluoroacetyaminomethyl)thymidine triphosphate) and (9) (4′-C-(aminomethyl)thymidine triphosphate) as described above.
(§3) Primer extension reactions were performed using the above primers in the presence of 40 to 80 μM of nucleotide triphosphates. Positive control reactions contained all four native nucleotide triphosphates. For the other reactions the TTP was replaced with either a 2:1 ratio of […] for the terminator control, or entirely by the test compound The enzymes were used at a final concentration of 0.175 units/μl and a magnesium ion concentration of 2.5 mM in buffers supplied by the manufacturer. The primer and template concentrations were 0.5 pmol/μl and 2 pmol/μl respectively.
(§4) Extension reactions with thermophilic enzymes were performed by initially denaturing the fully assembled reactions at 70° C. for 5 min. followed by 45° C. for 20–40 minutes. The following enzymes were used: Taq DNA polymerase (Taq); Thermosequenase (TS); Thermosequenase II (TSII); Thermosequenase E (TSE), Tfl DNA polymerase (Tfl); Tth DNA polymerase (Tth), deltaTts DNA polymerase (deltaTts), deltaTts D DNA polymerase (dettaTTSD) (all from APBiotech); Pfu DNA polymerase (Pfu) (Stratagene Ltd); Vent™ DNA polymerase (Vent) (New England Biolabs).
(§5) The reactions were stopped by adding a 0.5 volume aliquot of 80% formamide containing 0.1% (w/v) bromophenol blue and 0.1% (w/v) cresol blue. The reaction products were separated by denaturing gel electrophoresis at a constant power of 45 W on 16% polyacrylamide gels containing 50% urea.
(§6) Gels were scanned for Cy3 fluorescence on a Molecular Dynamics Fluorimager and the data analysed using Molecular Dynamics ImageQuant 5 software.
(§7) The incorporation of a test nucleotide triphosphate results in the appearance on a polyacrylamide gel of a single band corresponding to a single base extension product. If, however, the enzyme adds additional bases then further bands would be observed that corresponded to either the full-length product or positions of other complementary bases in the template.

[1] = test system: deltaTts D DNA polymerase; experiment: Thermostable DNA polymerase primer extension, delta TTSD; conditions: DNA template, 45° C. for 20–40 minutes; for primer extended by at least one base within assay time (grade): TTP replaced entirely by test compound
Method: as §1, §2, §3, §4, §5, §6, §7

Thermosequenase E = experiment: Thermostable DNA polymerase primer extension, TSE; conditions: DNA template, 45° C. for 20–40 minutes; for primer extended by at least one base within assay time (grade): TTP replaced entirely by test compound
Method: as §1, §2, §3, §4, §5, §6, §7

Bst DNA polymerase = target: T1, Bst DNA polymerase (Geobacillus stearothermophilus, UniProt P52026); experiment: Mesophilic DNA polymerase primer extension, Bst; conditions: DNA template, 37° C. for 20–40 minutes; for primer extended by at least one base within assay time (grade): TTP replaced entirely by test compound
T1 construct: purchased Cambio Ltd
T1 sequence (P52026 1-876): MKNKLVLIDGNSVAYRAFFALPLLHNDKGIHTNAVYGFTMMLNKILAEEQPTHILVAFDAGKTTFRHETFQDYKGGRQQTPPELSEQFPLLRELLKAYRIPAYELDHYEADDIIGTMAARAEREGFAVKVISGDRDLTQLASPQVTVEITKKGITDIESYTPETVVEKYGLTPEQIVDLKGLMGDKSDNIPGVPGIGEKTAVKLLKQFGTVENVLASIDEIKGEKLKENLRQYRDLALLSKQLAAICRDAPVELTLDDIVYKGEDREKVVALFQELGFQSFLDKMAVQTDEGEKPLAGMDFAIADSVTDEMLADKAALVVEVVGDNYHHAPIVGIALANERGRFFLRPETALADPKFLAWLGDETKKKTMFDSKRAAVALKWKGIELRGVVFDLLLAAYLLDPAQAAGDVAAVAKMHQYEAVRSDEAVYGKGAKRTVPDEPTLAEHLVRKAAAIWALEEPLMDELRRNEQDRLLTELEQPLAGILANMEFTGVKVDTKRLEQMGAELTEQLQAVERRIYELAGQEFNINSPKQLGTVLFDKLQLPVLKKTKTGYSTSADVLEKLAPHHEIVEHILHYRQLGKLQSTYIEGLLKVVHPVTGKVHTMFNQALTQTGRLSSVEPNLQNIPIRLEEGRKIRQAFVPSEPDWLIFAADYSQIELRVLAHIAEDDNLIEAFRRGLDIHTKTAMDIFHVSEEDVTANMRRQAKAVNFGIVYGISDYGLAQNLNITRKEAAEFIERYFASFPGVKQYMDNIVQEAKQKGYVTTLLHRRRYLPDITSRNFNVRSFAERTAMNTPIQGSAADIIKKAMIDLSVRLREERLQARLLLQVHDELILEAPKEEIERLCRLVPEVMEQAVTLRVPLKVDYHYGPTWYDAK
Method: as §1, §2, §3
(§8) Extension reactions preformed with mesophilic polymerases were carried out by mixing all the components of the reaction except the enzyme and heating to 70° C. for 5 min. After the reactions had cooled to room temperature 0.175 units of the enzyme were added and the reactions heated to 37° C. for 20–40 minutes. The following enzymes were used: T7 DNA polymerase (T7); Sequenase 2™ (Seq); Klenow fragment of DNA polymerase 1 (Klen); phi-29 DNA polymerase (Phi-29); T4 DNA polymerase (T4) (all from AP Biotech) and Bst DNA polymerase (Bst) (Cambio Ltd).
as §5, §6, §7

Sequenase 2™ = target: T2, Sequenase 2™ (Escherichia phage T7, UniProt P00581, DEL118-145); experiment: Mesophilic DNA polymerase primer extension, Seq; conditions: DNA template, 37° C. for 20–40 minutes; for primer extended by at least one base within assay time (grade): TTP replaced entirely by test compound
T2 construct: purchased AP Biotech
T2 sequence (P0AA25 2-109, stated change not applied): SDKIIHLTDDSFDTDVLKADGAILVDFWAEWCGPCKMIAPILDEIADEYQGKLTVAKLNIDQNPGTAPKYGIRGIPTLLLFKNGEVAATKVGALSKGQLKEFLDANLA
T2 sequence (P00581 other isoform, or with tags, fused parts or gaps DEL118-145): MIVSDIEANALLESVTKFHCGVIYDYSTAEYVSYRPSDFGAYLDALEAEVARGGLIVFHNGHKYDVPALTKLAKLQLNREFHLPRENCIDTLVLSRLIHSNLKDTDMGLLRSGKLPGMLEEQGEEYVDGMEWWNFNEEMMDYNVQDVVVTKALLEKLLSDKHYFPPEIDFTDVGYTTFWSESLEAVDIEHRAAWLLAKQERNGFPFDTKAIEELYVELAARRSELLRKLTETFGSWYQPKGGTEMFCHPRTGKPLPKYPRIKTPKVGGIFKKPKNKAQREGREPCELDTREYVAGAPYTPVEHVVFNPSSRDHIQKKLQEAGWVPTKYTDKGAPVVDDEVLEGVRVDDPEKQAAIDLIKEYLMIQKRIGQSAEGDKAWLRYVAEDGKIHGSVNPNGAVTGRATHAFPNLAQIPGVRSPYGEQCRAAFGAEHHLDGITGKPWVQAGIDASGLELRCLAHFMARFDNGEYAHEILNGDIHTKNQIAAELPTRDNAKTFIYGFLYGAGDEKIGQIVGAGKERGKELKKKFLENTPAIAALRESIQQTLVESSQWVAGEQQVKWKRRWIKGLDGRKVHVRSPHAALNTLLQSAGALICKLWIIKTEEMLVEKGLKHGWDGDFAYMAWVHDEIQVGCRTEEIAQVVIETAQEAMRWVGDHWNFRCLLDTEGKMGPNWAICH
Method: DNA polymerase assays were performed using Sequence 1 as primer and Sequence 2 as template. • Sequence 1 5′[Cy3][…] 3′ • Sequence 2 5′AT […]3′
as §2, §3, §8, §5, §6, §7

“4′-C-(Aminomethyl)thymidine triphosphate [compound (9)]” was tested, and the “result of incorporation (termination / further chain extension)” value (Thermosequenase) was “T”, the “primer extended by at least one base within assay time (grade)” value (“primer extended” below) (Thermosequenase) was “+ (up to 50% of primer extended by at least one base within assay time)” and the “result of incorporation (termination / further chain extension)” value [1] was “T/E”. The “primer extended” value [1] was “++ (up to 75% of primer extended by at least one base within assay time)”, the “result of incorporation (termination / further chain extension)” value (Thermosequenase E) was “T” and the “primer extended” value (Thermosequenase E) was “++ (up to 75% of primer extended by at least one base within assay time)”. The “result of incorporation (termination / further chain extension)” value (Bst DNA polymerase) was “T”, the “primer extended” value (Bst DNA polymerase) was “+ (up to 50% of primer extended by at least one base within assay time)” and the “result of incorporation (termination / further chain extension)” value (Sequenase 2™) was “T”. For the same compound, the “primer extended” value (Sequenase 2™) was “+ (up to 50% of primer extended by at least one base within assay time)”.
With “4′-C-(Glycylaminomethyl)thymidine triphosphate [compound (6)]” the “result of incorporation (termination / further chain extension)” value (Thermosequenase) was “T”, the “primer extended” value (Thermosequenase) was “+ (up to 50% of primer extended by at least one base within assay time)” and the “result of incorporation (termination / further chain extension)” value [1] was “T”. For the same compound, the “primer extended” value [1] was “++ (up to 75% of primer extended by at least one base within assay time)”, the “result of incorporation (termination / further chain extension)” value (Thermosequenase E) was “T” and the “primer extended” value (Thermosequenase E) was “++ (up to 75% of primer extended by at least one base within assay time)”. For the same compound, the “result of incorporation (termination / further chain extension)” value (Bst DNA polymerase) was “T”, the “primer extended” value (Bst DNA polymerase) was “+ (up to 50% of primer extended by at least one base within assay time)” and the “result of incorporation (termination / further chain extension)” value (Sequenase 2™) was “T”. For the same compound, the “primer extended” value (Sequenase 2™) was “+ (up to 50% of primer extended by at least one base within assay time)”.
Cc1cn([C@H]2C[C@H](O)[C@@](CNC(=O)C(F)(F)F)(COP(=O)(O)OP(=O)(O)OP(=O)(O)O)O2)c(=O)[nH]c1=O [compound (8), 4′-C-(N-trifluoroacetylaminomethyl)thymidine triphosphate] was tested, and the “result of incorporation (termination / further chain extension)” value (Thermosequenase) was “T”, the “primer extended” value (Thermosequenase) was “+ (up to 50% of primer extended by at least one base within assay time)” and the “result of incorporation (termination / further chain extension)” value [1] was “T/E”. For the same compound, the “primer extended” value [1] was “++ (up to 75% of primer extended by at least one base within assay time)”, the “result of incorporation (termination / further chain extension)” value (Thermosequenase E) was “T” and the “primer extended” value (Thermosequenase E) was “++ (up to 75% of primer extended by at least one base within assay time)”. For the same compound, the “result of incorporation (termination / further chain extension)” value (Bst DNA polymerase) was “T”, the “primer extended” value (Bst DNA polymerase) was “+ (up to 50% of primer extended by at least one base within assay time)” and the “result of incorporation (termination / further chain extension)” value (Sequenase 2™) was “T”. The “primer extended” value (Sequenase 2™) was “+ (up to 50% of primer extended by at least one base within assay time)”.
